According to patent US20130017537A1, “METHOD OF IN-VITRO IMMUNOASSAY” (BASF Beauty Care Solutions France S.A.S., priority 2011, published 2013):
Several values for one entry are separate records, joined by “and”; a condition that tells them apart may be missing. Equal values may be shown once.

Tests used:
[1] = test system: type V collagen in the ECM; assay: Influence of the lysis solution on the assay of type V collagen in the ECM; assay type: cell-based, human; settings: repeat experiment, Table 3.2
Experimental: Thus, normal human fibroblasts obtained from abdominal biopsies were seeded in a 96-well plate and cultured in a defined medium (FGM) to 100% confluency.
After 48 hours of culture postconfluency at 37° C. under 0.5% CO2, the culture medium was collected.
The time of application of the lysis solution tested was 10 minutes at room temperature and with stirring.
The collagen V in the ECM was assayed directly on the ECM by using an anticollagen V antibody. A secondary antibody conjugated to europium was used with a detection reagent and the fluorescence was measured. (Delfia® kit—Perkin Elmer).
The experiment was repeated and the lysis solutions tested were as follows: • solution according to the invention NH4OH: 110 μl of an ammonium hydroxide solution at concentrations between 200 μM and 2 M. • Solution of monoethylamine at 20 Mm • Solution of diethylamine at 20 mM • Solution of triethylamine at 20 mM

[2] = test system: type V collagen in the ECM; assay: Assay of type V collagen in the ECM (anticollagen V antibody, europium TRF, Delfia) after NH4OH lysis of fibroblasts; assay type: cell-based, human; settings: for Coll V (RFU) Mean: 48 hours, donor; for Versus control Mean (Coll V): control = 100.00
Experimental: A lysis step was carried out: 110 μl of an ammonium hydroxide solution at 20 mM for 10 minutes at room temperature and with stirring. The collagen V in the ECM was assayed directly on the ECM by using an anticollagen V antibody. A secondary antibody conjugated to europium was used with a detection reagent and the fluorescence was measured. (Delfia® kit—Perkin Elmer). The experiment was carried out according to the protocol described in example 1 with fibroblasts extracted from a biopsy from a donor.

collagen I = assay: Immunohistochemical analysis of collagen I (confocal fluorescence); assay type: cell-based, human; settings: 50 μM; 72 h
Experimental: After 72 h culture postconfluency, the culture medium was removed and immunolabelling was performed. The polyclonal anti-collagen I primary antibody was applied, then after removal of the medium the secondary antibody conjugated to a fluorochrome alexa 488 is added. The fluorescence was examined under the LSM700 confocal microscope.

[3] = test system: type I collagen in the ECM; assay: Assay of type I collagen in the ECM (anticollagen I antibody, europium TRF, Delfia) after NH4OH lysis of fibroblasts; assay type: cell-based, human; parameters: key to Coll I Mean: europium fluorescence normalized to measured dsDNA; settings: for Coll I (RFU) Mean: 48 hours, donor; for Versus control Mean (Coll I): control = 100.00; for Coll I Mean / Ratio: Coll I/DNA Mean / Stat Mean (Coll I/DNA, control = 100.00): ECM
Experimental: After 48 hours of culture postconfluency, the culture medium was removed and discarded. A lysis step was carried out: 110 μl of an ammonium hydroxide solution at 20 mM for 10 minutes at room temperature and with stirring. The lysate was collected and analysed. The double-stranded DNA contained in the lysate was assayed by using the bisbenzimide method (Picogreen Kit, Invitrogen). The collagen in the ECM was assayed directly on the ECM by using an anticollagen I antibody. A secondary antibody conjugated to europium was used with a detection reagent and the fluorescence was measured. (Delfia® kit—Perkin Elmer). The fluorescence results were rationalized relative to the measured dsDNA rate. The experiment was carried out according to the protocol described in example 1 with fibroblasts extracted from a biopsy from a donor. […] The experiment was carried out according to the protocol described in example 1 with fibroblasts extracted from a biopsy of a donor.

[4] = test system: intracellular procollagen; assay: Procollagen ELISA (PIPc kit) on collected lysis medium; assay type: cell-based, human; settings: for Procoll Mean (intracellular procollagen) / Ratio: Procoll/DNA Mean / Stat Mean (Procoll/DNA, control = 100.00): lysis medium
Experimental: The method described in example 1 was applied and the culture medium and lysis medium collected were analysed. On the collected lysis medium, a procollagen assay (PIPc kit, TAKARA) by ELISA is carried out for determining the amount of intracellular procollagen (Table 4.2). A DNA assay (Picogreen kit, Invitrogen) was also carried out for rationalizing all of the measurements in each well to the quantity of viable cells. The amounts of collagen and procollagen measured were rationalized to the amount of DNA present in each well.

[5] = test system: extracellular procollagen; assay: Procollagen ELISA (PIPc kit) on collected culture medium; assay type: cell-based, human
Experimental: The method described in example 1 was applied and the culture medium and lysis medium collected were analysed. On the collected culture medium, a procollagen assay was carried out (PIPc kit, TAKARA) by ELISA for determining the amount of extracellular procollagen (Table 4.1) The amounts of collagen and procollagen measured were rationalized to the amount of DNA present in each well. In experiment 6, procollagen was assayed in the culture medium collected in step b) in accordance with the method described in example 4.

normal human fibroblasts = assay: Double-stranded DNA assay in the cell lysate (bisbenzimide, Picogreen) for quantity of viable cells; assay type: cell-based; parameters: unit not given here
Experimental: The lysate was collected and analysed. The double-stranded DNA contained in the lysate was assayed by using the bisbenzimide method (Picogreen Kit, Invitrogen). On the collected lysis medium, a procollagen assay (PIPc kit, TAKARA) by ELISA is carried out for determining the amount of intracellular procollagen (Table 4.2). A DNA assay (Picogreen kit, Invitrogen) was also carried out for rationalizing all of the measurements in each well to the quantity of viable cells.

[6] = ascorbic acid 0.1 μM, Example 4
[7] = ascorbic acid 100 μM, Example 5
[8] = ascorbic acid 100 μM, Example 4

## CCN [Monoethylamine, monoethylamine]
[1]
  Ratio: Coll/DNA % (NH4OH = 100): 23.78%

## O=C1O[C@H]([C@@H](O)CO)C(O)=C1O [Ascorbic acid, ascorbic acid]
[2]; ascorbic acid 5 μM
  Ratio: Coll/DNA Mean (Coll V): 59.83
  Coll V (RFU) Mean: 12644 RFU
  Versus control Mean (Coll V): 117.16
[2]; ascorbic acid 10 μM
  Ratio: Coll/DNA Mean (Coll V): 58.76
  Coll V (RFU) Mean: 14127 RFU
  Versus control Mean (Coll V): 115.06
[2]; ascorbic acid 25 μM
  Ratio: Coll/DNA Mean (Coll V): 68.69
  Coll V (RFU) Mean: 16172 RFU
  Versus control Mean (Coll V): 134.49
[2]; ascorbic acid 50 μM
  Ratio: Coll/DNA Mean (Coll V): 68.86
  Coll V (RFU) Mean: 16230 RFU
  Versus control Mean (Coll V): 134.82
[2]; ascorbic acid 100 μM
  Ratio: Coll/DNA Mean (Coll V): 73.12
  Coll V (RFU) Mean: 17994 RFU
  Versus control Mean (Coll V): 143.17
Collagen I
  Area/cells % (control = 100): 114.96%
  Area/cells Mean (collagen I fluorescence): 124238.13
[3]; 50 μM, Example 6
  Coll I (RFU) Mean: 169132 RFU
  Ratio: Coll/DNA Mean (Coll I): 340.49
  Versus control Mean (Coll I): 119.53
[3]; Example 4, 0.1 to 100 μM
  effect of stimulation on the content of collagen I in the ECM (dose dependence): dose-dependent up to 50 μM
[3]; Example 5, 5 to 100 μM tested
  optimum dose for efficacy, collagen I assay: 50 µM
[3]; Example 5, collagen I and V in the ECM
  stimulation of the synthesis of collagen I and V: induces stimulation of the synthesis of collagen I and V with a significant dose effect
[3]; Example 6, ascorbic acid at 50 μM, vegetable extract 1% (v/v)
  amount of collagen I in the ECM: significant increase
[3]; [6]
  Coll I Mean: 74156
  Ratio: Coll I/DNA Mean: 233.65
  Stat Mean (Coll I/DNA, control = 100.00): 105.33
[3]; ascorbic acid 1 μM, Example 4
  Coll I Mean: 74419
  Ratio: Coll I/DNA Mean: 246.46
  Stat Mean (Coll I/DNA, control = 100.00): 111.10
[3]; ascorbic acid 5 μM, Example 5
  Coll I (RFU) Mean: 59802 RFU
  Ratio: Coll/DNA Mean (Coll I): 273.40
  Versus control Mean (Coll I): 125.69
[3]; ascorbic acid 10 μM, Example 5
  Coll I (RFU) Mean: 59569 RFU
  Ratio: Coll/DNA Mean (Coll I): 239.53
  Versus control Mean (Coll I): 110.12
[3]; ascorbic acid 10 μM, Example 4
  Coll I Mean: 78694
  Ratio: Coll I/DNA Mean: 280.82
  Stat Mean (Coll I/DNA, control = 100.00): 126.59
[3]; ascorbic acid 25 μM, Example 5
  Coll I (RFU) Mean: 59088 RFU
  Ratio: Coll/DNA Mean (Coll I): 254.84
  Versus control Mean (Coll I): 117.16
[3]; ascorbic acid 50 μM, Example 5
  Coll I (RFU) Mean: 54454 RFU
  Ratio: Coll/DNA Mean (Coll I): 309.87
  Versus control Mean (Coll I): 130.66
[3]; ascorbic acid 50 μM, Example 4
  Coll I Mean: 79146
  Ratio: Coll I/DNA Mean: 284.31
  Stat Mean (Coll I/DNA, control = 100.00): 128.17
[3]; [7]
  Coll I (RFU) Mean: 50765 RFU
  Ratio: Coll/DNA Mean (Coll I): 249.31
  Versus control Mean (Coll I): 114.62
[3]; [8]
  Coll I Mean: 79796
  Ratio: Coll I/DNA Mean: 273.96
  Stat Mean (Coll I/DNA, control = 100.00): 123.50
[4]; Example 4
  procollagen concentration in the intracellular compartment: less than that observed with the untreated control
[4]; ascorbic acid 0.1 μM
  Procoll Mean (intracellular procollagen): 116 ng/mL
  Ratio: Procoll/DNA Mean: 0.37
  Stat Mean (Procoll/DNA, control = 100.00): 102.85
[4]; ascorbic acid 1 μM
  Procoll Mean (intracellular procollagen): 108 ng/mL
  Ratio: Procoll/DNA Mean: 0.36
  Stat Mean (Procoll/DNA, control = 100.00): 100.76
[4]; ascorbic acid 10 μM
  Procoll Mean (intracellular procollagen): 114 ng/mL
  Ratio: Procoll/DNA Mean: 0.41
  Stat Mean (Procoll/DNA, control = 100.00): 108.02
[4]; ascorbic acid 50 μM
  Procoll Mean (intracellular procollagen): 60 ng/mL
  Ratio: Procoll/DNA Mean: 0.22
  Stat Mean (Procoll/DNA, control = 100.00): 60.83
[4]; ascorbic acid 100 μM
  Procoll Mean (intracellular procollagen): 66 ng/mL
  Ratio: Procoll/DNA Mean: 0.23
  Stat Mean (Procoll/DNA, control = 100.00): 63.69
[5]; 50 μM, Example 7
  Procoll (ng/ml) Mean: 1983 ng/mL
  Ratio: Procoll/DNA Mean: 4.01
[5]; 50 μM, Example 7, control = 100
  Versus control Mean (ProColl/DNA): 171.17
[5]; ascorbic acid 0.1 μM
  Procoll Mean (extracellular procollagen): 1987 ng/mL
  Ratio: Procoll/DNA Mean: 6.26
  Stat Mean (Procoll/DNA, control = 100.00): 100.75
[5]; ascorbic acid 1 μM
  Procoll Mean (extracellular procollagen): 1983 ng/mL
  Ratio: Procoll/DNA Mean: 6.57
  Stat Mean (Procoll/DNA, control = 100.00): 105.74
[5]; ascorbic acid 10 μM
  Procoll Mean (extracellular procollagen): 2756 ng/mL
  Ratio: Procoll/DNA Mean: 9.83
  Stat Mean (Procoll/DNA, control = 100.00): 158.16
[5]; ascorbic acid 50 μM
  Procoll Mean (extracellular procollagen): 2852 ng/mL
  Ratio: Procoll/DNA Mean: 10.25
  Stat Mean (Procoll/DNA, control = 100.00): 164.89
[5]; ascorbic acid 100 μM
  Procoll Mean (extracellular procollagen): 2845 ng/mL
  Ratio: Procoll/DNA Mean: 9.78
  Stat Mean (Procoll/DNA, control = 100.00): 157.30
Normal human fibroblasts; 50 μM, Example 6 and 7
  DNA Mean: 497.4 and 497.3
Normal human fibroblasts; [6]
  DNA Mean: 318
Normal human fibroblasts; ascorbic acid 1 μM, Example 4
  DNA Mean: 303
Normal human fibroblasts; ascorbic acid 5 μM, Table 5.3
  DNA Mean: 220
Normal human fibroblasts; ascorbic acid 5 μM, Table 5.4
  DNA Mean: 212
Normal human fibroblasts; ascorbic acid 10 μM, Example 4
  DNA Mean: 281
Normal human fibroblasts; ascorbic acid 10 μM, Table 5.3
  DNA Mean: 249
Normal human fibroblasts; ascorbic acid 10 μM, Table 5.4
  DNA Mean: 241
Normal human fibroblasts; ascorbic acid 25 μM, Table 5.3
  DNA Mean: 232
Normal human fibroblasts; ascorbic acid 25 μM, Table 5.4
  DNA Mean: 236
Normal human fibroblasts; ascorbic acid 50 μM, Example 4
  DNA Mean: 279
Normal human fibroblasts; ascorbic acid 50 μM, Table 5.3
  DNA Mean: 180
Normal human fibroblasts; ascorbic acid 50 μM, Table 5.4
  DNA Mean: 236
Normal human fibroblasts; [8]
  DNA Mean: 291
Normal human fibroblasts; ascorbic acid 100 μM, Table 5.3
  DNA Mean: 204
Normal human fibroblasts; ascorbic acid 100 μM, Table 5.4
  DNA Mean: 246
